{
  "source": "paper PMC11732879",
  "about": "“Preclinical evaluation of ^225Ac-labeled minigastrin analog DOTA-CCK-66 for Targeted Alpha Therapy” (European Journal of Nuclear Medicine and Molecular Imaging, 2024)",
  "key": {"[1]": {"assay": "in vivo", "parameters": "species or system 394-NOD SCID mice", "details": "394-NOD SCID, mouse, 1.1 MBq", "protocol": "Static PET/CT images of control group animals were acquired (n = 5) 1 h after injection of [^68Ga]Ga-DOTA-CCK-66 using a preclinical PET/CT scanner (Genisys 8 PET/CT; Sofie Biosciences, Dulles, VA, USA), according to a published procedure. PET image reconstruction was carried out using a maximum-likelihood expectation maximization with 60 iterations. Correction for photon attenuation of all images was performed. Acquisition parameters for CT applications were 40 kVp and […]. Acquired data were analyzed using OsiriX Imaging Software (version 3.9.3; Pixmeo SARL, Bernex, Switzerland)."}, "[2]": {"tested_on": "AR42J tumor", "assay": "Single-dose treatment study (tumor volume, survival)", "type": "in vivo, 394-NOD SCID mice", "details": "for Tumor volume: single injection on day 0: [225Ac] 37 kBq (178 pmol), caliper, mean±SD, n=5", "protocol": "AR42J cells (2 × 10^6 cells, 100 µL suspended in Matrigel) were subcutaneously inoculated into the right shoulder region of mice. When tumors reached 30 to 290 mm^3 (14 to 17 d after inoculation), […] into 3 groups (5 per group). On day 0 of the experiment mice received a single-dose injection of either [^68Ga]Ga-DOTA-CCK-66 (1.1 MBq, PET/CT imaging, control cohort), [^177Lu]Lu-DOTA-CCK-66 (37 MBq) or [^225Ac]Ac-DOTA-CCK-66 (37 kBq). Tumor volume (caliper measurements, length^2 × width/2) and body weight of all animals were subsequently monitored twice a week. Animals were sacrificed after reaching one of the end-point criteria (weight loss of more than 20%, tumor volume of more than 2,000 mm^3, ulceration of the tumor, respiratory distress, or change of behavior)."}},
  "note": "*1 amine or outer side, *2 acyl side, *3 side chain or, on linkers, in order; H or OH if unused. Where a SMILES comes first, the peptide text is derived from it. [ ]: non-standard residue; d: D form. The star is where a group is joined. DOTA = O=C(O)CN1CCN(CC(=O)O)CCN(CC(=O)*)CCN(CC(=O)O)CC1; d(γGlu) = O=C(O)[C@@H](CCC(=O)[*:2])N[*:1]; 1Nal = N[C@@H](Cc1cccc2ccccc12)C(=O)O; NMeNle = CCCC[C@H](NC)C(=O)O; PEG4 = NCCOCCOCCOCCOCCC(=O)O",
  "data": [
    {"compound": "CCCC[C@@H](C(=O)N[C@@H](CC(=O)O)C(=O)N[C@@H](Cc1cccc2ccccc12)C(N)=O)N(C)C(=O)[C@H](Cc1c[nH]c2ccccc12)NC(=O)CCOCCOCCOCCOCCNC(=O)CC[C@@H](NC(=O)CN1CCN(CC(=O)O)CCN(CC(=O)O)CCN(CC(=O)O)CC1)C(=O)O", "note": "[[^68Ga]Ga-DOTA-CCK-66, metal not drawn] ({DOTA-d(γGlu)-PEG4}-W[NMeNle]D[1Nal]-NH2)", "values": [
      {"measurement": "SUV at 1 h", "setting": "[1]", "value": "2.02 ± 0.77", "unit": "SUV"}
    ]},
    {"compound": "CCCC[C@@H](C(=O)N[C@@H](CC(=O)O)C(=O)N[C@@H](Cc1cccc2ccccc12)C(N)=O)N(C)C(=O)[C@H](Cc1c[nH]c2ccccc12)NC(=O)CCOCCOCCOCCOCCNC(=O)CC[C@@H](NC(=O)CN1CCN(CC(=O)O)CCN(CC(=O)O)CCN(CC(=O)O)CC1)C(=O)O", "note": "[[^225Ac]Ac-DOTA-CCK-66] [metal not drawn] ({DOTA-d(γGlu)-PEG4}-W[NMeNle]D[1Nal]-NH2)", "values": [
      {"measurement": "fold increase in mean survival, 225Ac-TAT compared to 177Lu-RLT", "setting": "[2]; 54 d versus 37 d, p = 0.0003", "value": 1.5, "unit": "fold"},
      {"measurement": "Tumor volume", "setting": "[2]; day 0, [177Lu] 37 MBq (1.7 nmol), [68Ga] control cohort 1.1 MBq (29 pmol)", "value": "150±80", "unit": "mm^3"},
      {"measurement": "Tumor volume", "setting": "[2]; day 3, [177Lu] 37 MBq (1.7 nmol), [68Ga] control cohort 1.1 MBq (29 pmol)", "value": "170±110", "unit": "mm^3"},
      {"measurement": "Tumor volume", "setting": "[2]; day 7, [177Lu] 37 MBq (1.7 nmol), [68Ga] control cohort 1.1 MBq (29 pmol)", "value": "130±60", "unit": "mm^3"},
      {"measurement": "Tumor volume", "setting": "[2]; day 10, [177Lu] 37 MBq (1.7 nmol), [68Ga] control cohort 1.1 MBq (29 pmol)", "value": "100±60", "unit": "mm^3"},
      {"measurement": "Tumor volume", "setting": "[2]; day 14, [177Lu] 37 MBq (1.7 nmol)", "value": "100±50", "unit": "mm^3"},
      {"measurement": "Tumor volume", "setting": "[2]; day 17, [177Lu] 37 MBq (1.7 nmol)", "value": "100±50", "unit": "mm^3"},
      {"measurement": "Tumor volume", "setting": "[2]; day 21, [177Lu] 37 MBq (1.7 nmol)", "value": "90±60", "unit": "mm^3"},
      {"measurement": "Tumor volume", "setting": "[2]; day 24, [177Lu] 37 MBq (1.7 nmol)", "value": "130±70", "unit": "mm^3"},
      {"measurement": "Tumor volume", "setting": "[2]; day 28, [177Lu] 37 MBq (1.7 nmol)", "value": "130±80", "unit": "mm^3"},
      {"measurement": "Tumor volume", "setting": "[2]; day 31, [177Lu] 37 MBq (1.7 nmol)", "value": "160±90", "unit": "mm^3"},
      {"measurement": "Tumor volume", "setting": "[2]; day 35", "value": "240±130", "unit": "mm^3"},
      {"measurement": "Tumor volume", "setting": "[2]; day 38", "value": "470±280", "unit": "mm^3"},
      {"measurement": "Tumor volume", "setting": "[2]; day 42", "value": "740±430", "unit": "mm^3"},
      {"measurement": "Tumor volume", "setting": "[2]; day 45", "value": "1,040±690 mm^3"},
      {"measurement": "Tumor volume", "setting": "[2]; day 49", "value": "1,600±830 mm^3"},
      {"measurement": "Mean survival", "setting": "[2]; single dose on day 0: [225Ac] 37 kBq, [177Lu] 37 MBq, [68Ga] 1.1 MBq (control group), n=5 per group", "value": "54 ± 6", "unit": "days"},
      {"measurement": "fold increase in mean survival versus control group", "setting": "[2]; single dose: [225Ac] 37 kBq, [177Lu] 37 MBq, control 12 ± 3 d", "value": 4.5, "unit": "fold"}
    ]}
  ]
}
